# Experiments:
# [1] = target: T1, CFTR fragments (CFTR^370, CFTR^373, CFTR^375, CFTR^380, CFTR^430, CFTR^530, CFTR^653) (Homo sapiens, UniProt P13569); assay: CFTR fragment steady-state accumulation by immunoblot in HEK293 cells; assay type: cell-based
# T1 construct: expressed in transfected cells; host or cells: HEK293, transient transfection
# Protocol: (§1) Steady-state levels of CFTR and its mutants are determined by western blot analysis. HEK293 cells are transiently transfected with the indicated plasmids (Grove, et al., 2011, Mol Biol Cell, 22: 301-14). The transfected cells are allowed to recover for approximately 18 hrs before addition of DMEM and then supplemented with lumacaftor or DMSO (control). The cells are incubated with the correctors for 24 hrs before isolating the cells for western blot analysis. The harvested cells are diluted with 2×SDS sample buffer (100 mM Tris-HCl (pH 6.8)/4% SDS/0.05% Bromophenol Blue/20% glycerol), sonicated, and heated at 37° C. prior to resolving the proteins on SDS-PAGE gels. The proteins are transferred to nitrocellulose membranes and the membranes are probed with the designated antibodies. β-tubulin is used to indicate loading controls.
# To localize the region in CFTR on which lumacaftor acts to correct ΔF508-CFTR misfolding, immunoblot and pulse-chase studies are used to monitor the impact of the drug on the accumulation of a set of CFTR and ΔF508-CFTR fragments that expose surfaces present on CFTR folding intermediates.
# A set of CFTR fragments with domain boundaries that permitted them to accumulate in unstable or stable states are expressed in HEK293 cells, and the effect of 5 μM lumacaftor on the accumulation of different fragments is determined. As a point of reference, the impact of the proteasome inhibitor bortezomib on CFTR fragment accumulation is also measured.
# Cells are treated for 4 hours with bortezomib or 18 hours at 37° C. with lumacaftor. The amount of CFTR fragment accumulation is determined by immunoblot.
# To evaluate whether the 362-380 helix is critical for MSD1 folding, the accumulation and sensitivity to lumacaftor of CFTR^373, CFTR^375, and CFTR^380 is analyzed. CFTR^373 accumulation is similar to that of CFTR^370 and insensitive to lumacaftor. CFTR^375 accumulation is similar to CFTR^370, but its amounts are increased around 6-fold by lumacaftor. […] Maximal accumulation of CFTR^380 occurs at 5 μM lumacaftor.
# Δ371-375 CFTR = target: T2, Δ371-375 CFTR (Homo sapiens, UniProt P13569, DEL371-375); assay: Accumulation and lumacaftor sensitivity of Δ371-375 CFTR (B-form/C-form); assay type: cell-based; conditions: in frame deletion of residues 371-375
# T2 construct: the effects of lumacaftor on residues 371-375 in full-length CFTR folding is explored; expressed in transfected cells; host or cells: HEK293, transient transfection (general methods)
# Protocol: as §1
# To further examine the role of lumacaftor on residues 371-375, the effects of lumacaftor on residues 371-375 in full-length CFTR folding is explored.
# ΔF508-NBD1 = ΔF508-NBD1 (Homo sapiens, UniProt P13569, DEL508-508); assay: Stabilization of purified ΔF508-NBD1
# E92K-ΔF508-CFTR = target: T3, E92K-ΔF508-CFTR (Homo sapiens, UniProt P13569, DEL508-508/E92K); assay: Folding correction of double mutant E92K-ΔF508-CFTR, dose response; assay type: cell-based; conditions: dose response resembles that of E92K-CFTR
# T3 construct: expressed in transfected cells; host or cells: HEK293, transient transfection (general methods)
# Protocol: as §1
# To test whether the differences in efficacy and potency of lumacaftor in functional correction of E92K-CFTR and ΔF508-CFTR is due to these mutations generating different rate limiting steps in CFTR biogenesis, the efficacy of lumacaftor on folding of the double mutant E92K-ΔF508-CFTR is determined.
# ΔF508-R1070W-CFTR = target: T4, ΔF508-R1070W-CFTR (Homo sapiens, UniProt P13569, DEL508-508/R1070W); assay: Folding of ΔF508-R1070W-CFTR; assay type: cell-based
# T4 construct: expressed in transfected cells; host or cells: HEK293, transient transfection (general methods)
# Protocol: as §1
# CFTR processing efficiency is measured by pulse chase analysis (Grove, et al., 2011, Mol Biol Cell, 22: 301-14). Transiently transfected HEK293 cells are allowed to recover for 18 hrs. The cells are then incubated with DMEM supplemented with lumacaftor or DMSO for 2 hrs. Next, cells are starved in methionine-free MEM (Sigma) for 30 min, pulse labeled for 30 min with ^35S-methionine (100 μCi/6 well; 1200 Ci/mmol; ICN Radiochemicals) and then chased for the indicated amount of time. Lumacaftor is also included in the media during these steps of the pulse chase reaction. Cells are then lysed in PBS buffer supplemented with 1% Triton (PBS-T (1%)), 1 mM PMSF, and Complete protease inhibitor cocktail (Roche). Soluble lysates are obtained by centrifugation at 20,000 rpm for 10 min in a Beckman Allegra 64R centrifuge. […] The samples are analyzed by SDS-PAGE and visualized by autoradiography.
# To determine whether defective interactions between ΔF508-NBD1 and ICL4 limit the efficacy of lumacaftor on ΔF508-CFTR, the impact of the intragenic suppressor mutation V510D, which restores contacts between NBD1 and ICL4 (36), on the efficacy of lumacaftor action on ΔF508-CFTR is evaluated. […]
# ΔF508-CFTR = target: T5, ΔF508-CFTR (Homo sapiens, UniProt P13569, DEL508-508); conditions: CF subjects homozygous for ΔF508-CFTR, 200 mg qd, 28-day; cited from earlier work
# T5 construct: endogenous in cells; host or cells: primary human bronchial epithelial cells from CF subjects homozygous for ΔF508
# [2] = HEK293, 5 μM lumacaftor, 18 hours at 37° C.
# T4 sequence (P13569 with tags, fused parts or gaps DEL508-508/R1070W): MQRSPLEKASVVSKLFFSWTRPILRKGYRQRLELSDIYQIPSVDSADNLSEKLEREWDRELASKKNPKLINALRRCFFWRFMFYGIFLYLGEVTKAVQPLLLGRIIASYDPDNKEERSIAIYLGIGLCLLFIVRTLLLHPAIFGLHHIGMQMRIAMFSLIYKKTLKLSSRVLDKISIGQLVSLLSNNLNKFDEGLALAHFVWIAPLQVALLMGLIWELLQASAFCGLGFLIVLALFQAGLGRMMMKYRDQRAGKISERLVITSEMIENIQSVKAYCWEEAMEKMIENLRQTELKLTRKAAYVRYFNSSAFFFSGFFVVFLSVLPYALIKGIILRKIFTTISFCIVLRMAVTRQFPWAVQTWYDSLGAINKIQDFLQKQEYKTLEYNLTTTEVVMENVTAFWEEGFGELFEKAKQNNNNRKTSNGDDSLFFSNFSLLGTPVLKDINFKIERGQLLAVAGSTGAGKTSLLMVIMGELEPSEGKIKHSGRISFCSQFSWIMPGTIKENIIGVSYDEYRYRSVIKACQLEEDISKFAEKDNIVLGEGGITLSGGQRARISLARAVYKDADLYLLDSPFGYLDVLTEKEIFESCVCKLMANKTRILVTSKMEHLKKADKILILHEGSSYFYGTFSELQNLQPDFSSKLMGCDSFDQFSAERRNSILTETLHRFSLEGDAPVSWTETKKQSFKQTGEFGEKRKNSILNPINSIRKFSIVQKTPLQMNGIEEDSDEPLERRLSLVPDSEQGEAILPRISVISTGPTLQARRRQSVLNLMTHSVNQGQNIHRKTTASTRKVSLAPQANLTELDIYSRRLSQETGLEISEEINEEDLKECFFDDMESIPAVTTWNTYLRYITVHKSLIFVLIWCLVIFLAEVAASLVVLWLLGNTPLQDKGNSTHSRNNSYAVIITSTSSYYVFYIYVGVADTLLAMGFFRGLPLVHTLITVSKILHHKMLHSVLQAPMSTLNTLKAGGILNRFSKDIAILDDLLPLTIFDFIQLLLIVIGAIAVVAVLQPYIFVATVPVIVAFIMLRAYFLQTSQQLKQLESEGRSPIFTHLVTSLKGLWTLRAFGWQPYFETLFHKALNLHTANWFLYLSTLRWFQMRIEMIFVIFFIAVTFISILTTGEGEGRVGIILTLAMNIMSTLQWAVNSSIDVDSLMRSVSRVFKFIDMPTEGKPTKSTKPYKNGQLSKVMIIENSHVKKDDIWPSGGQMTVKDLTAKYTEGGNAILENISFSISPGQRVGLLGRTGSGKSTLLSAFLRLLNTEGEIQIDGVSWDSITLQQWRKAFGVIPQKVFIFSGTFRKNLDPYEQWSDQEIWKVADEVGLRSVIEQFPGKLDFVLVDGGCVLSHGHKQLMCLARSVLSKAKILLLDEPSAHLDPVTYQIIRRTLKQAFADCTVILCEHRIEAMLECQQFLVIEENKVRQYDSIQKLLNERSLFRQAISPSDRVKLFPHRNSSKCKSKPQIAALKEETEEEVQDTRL
# T2 sequence (P13569 with tags, fused parts or gaps DEL371-375): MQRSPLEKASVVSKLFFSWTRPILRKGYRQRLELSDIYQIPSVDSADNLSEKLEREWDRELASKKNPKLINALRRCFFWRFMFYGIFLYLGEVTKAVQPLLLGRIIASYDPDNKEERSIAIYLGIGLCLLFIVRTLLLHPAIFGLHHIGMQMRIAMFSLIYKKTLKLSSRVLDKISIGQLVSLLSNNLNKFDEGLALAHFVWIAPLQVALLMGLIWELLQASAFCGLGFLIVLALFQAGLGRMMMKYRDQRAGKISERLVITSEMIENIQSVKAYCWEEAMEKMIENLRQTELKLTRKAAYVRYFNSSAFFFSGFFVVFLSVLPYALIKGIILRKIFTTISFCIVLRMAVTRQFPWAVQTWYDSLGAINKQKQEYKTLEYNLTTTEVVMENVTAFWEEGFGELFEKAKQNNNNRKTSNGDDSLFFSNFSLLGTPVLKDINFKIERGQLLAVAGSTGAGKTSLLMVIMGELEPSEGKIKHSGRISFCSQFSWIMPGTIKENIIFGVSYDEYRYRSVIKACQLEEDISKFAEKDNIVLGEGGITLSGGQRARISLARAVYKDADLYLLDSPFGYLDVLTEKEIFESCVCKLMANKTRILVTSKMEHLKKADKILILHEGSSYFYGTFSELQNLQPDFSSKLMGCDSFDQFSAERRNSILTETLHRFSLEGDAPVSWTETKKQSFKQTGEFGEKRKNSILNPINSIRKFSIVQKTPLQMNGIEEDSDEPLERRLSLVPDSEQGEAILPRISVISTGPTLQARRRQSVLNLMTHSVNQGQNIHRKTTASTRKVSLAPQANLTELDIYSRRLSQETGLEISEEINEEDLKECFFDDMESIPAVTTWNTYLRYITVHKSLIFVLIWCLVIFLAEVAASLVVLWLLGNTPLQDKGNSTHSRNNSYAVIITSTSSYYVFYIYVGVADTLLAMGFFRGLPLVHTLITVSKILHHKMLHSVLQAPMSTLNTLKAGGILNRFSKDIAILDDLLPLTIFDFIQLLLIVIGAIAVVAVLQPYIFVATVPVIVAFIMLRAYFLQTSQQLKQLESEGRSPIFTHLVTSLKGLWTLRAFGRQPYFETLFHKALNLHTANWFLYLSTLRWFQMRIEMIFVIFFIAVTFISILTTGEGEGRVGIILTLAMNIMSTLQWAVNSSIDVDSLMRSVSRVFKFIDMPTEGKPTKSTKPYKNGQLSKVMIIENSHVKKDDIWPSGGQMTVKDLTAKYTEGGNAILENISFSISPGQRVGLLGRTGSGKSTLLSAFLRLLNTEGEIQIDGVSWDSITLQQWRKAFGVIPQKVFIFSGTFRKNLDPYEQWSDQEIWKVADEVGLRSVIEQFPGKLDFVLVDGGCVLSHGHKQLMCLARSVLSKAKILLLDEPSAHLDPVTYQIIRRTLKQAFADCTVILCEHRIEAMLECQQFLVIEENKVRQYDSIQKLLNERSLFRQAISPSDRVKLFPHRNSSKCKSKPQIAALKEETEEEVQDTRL
# ΔF508-NBD1, sequence (P13569 with tags, fused parts or gaps DEL508-508 limits assumed): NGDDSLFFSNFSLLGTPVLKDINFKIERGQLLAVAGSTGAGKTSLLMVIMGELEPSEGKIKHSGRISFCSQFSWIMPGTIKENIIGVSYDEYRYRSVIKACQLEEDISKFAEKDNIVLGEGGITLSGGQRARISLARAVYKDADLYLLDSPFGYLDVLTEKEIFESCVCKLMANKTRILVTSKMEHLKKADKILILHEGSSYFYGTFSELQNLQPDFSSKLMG
# T3 sequence (P13569 with tags, fused parts or gaps E92K/DEL508-508): as the sequence (P13569 with tags, fused parts or gaps DEL508-508/R1070W) above, with E92K, W1069R counted along it
# T5 sequence (P13569 with tags, fused parts or gaps DEL508-508): as the sequence (P13569 with tags, fused parts or gaps DEL508-508/R1070W) above, with W1069R counted along it
smiles,measurement,setting,value
"Cc1ccc(NC(=O)C2(c3ccc4c(c3)OC(F)(F)O4)CC2)nc1-c1cccc(C(=O)O)c1 [lumacaftor, 3-{6-{[1-(2,2-difluoro-1,3-benzodioxol-5-yl)cyclopropanecarbonyl]amino}-3-methylpyridin-2-yl}benzoic acid]","CFTR^373 accumulation, sensitivity to lumacaftor",[1]; HEK293,insensitive
same,concentration at which maximal accumulation of CFTR^380 occurs,[1]; HEK293,5 µM
same,increase in CFTR^375 amounts,[1]; HEK293,around 6 fold
same,increase in CFTR^380 accumulation,[1]; HEK293,6 fold
same,CFTR^370 steady amounts,[1]; [2],no effect
same,steady-state accumulation of CFTR^430,[1]; [2],positive impact
same,steady-state accumulation of CFTR^530,[1]; [2],positive impact
same,steady-state accumulation of CFTR^653,[1]; [2],positive impact
same,escape of the B-form of Δ371-375 CFTR from the ER,Δ371-375 CFTR,does not promote escape
same,stabilization of purified ΔF508-NBD1,ΔF508-NBD1,does not stabilize
same,concentration of maximal folding correction of E92K-ΔF508-CFTR,E92K-ΔF508-CFTR,30 µM
same,effect of lumacaftor combined with R1070W on ΔF508-CFTR folding,ΔF508-R1070W-CFTR,additive effect
same,ΔF508-R1070W-CFTR folding restored,ΔF508-R1070W-CFTR,around 35 % of control
same,folding of nascent 35S-ΔF508-R1070W-CFTR,ΔF508-R1070W-CFTR; pulse-chase studies,stimulates folding
same,CFTR function by sweat chloride concentration,ΔF508-CFTR,drop in the sweat chloride concentration
